According to US12090164B2, “Genotype-agnostic rescue of cystic fibrosis with small molecule bicarbonate channels” (The Board of Trustees of the University of Illinois, priority 2017, dated 2024):
“Also recorded” adds a separate entry of the source.

How the values were obtained:
CuFi-1 epithelia = assay: Transepithelial electrical resistance (Rt); format: cell-based, human; conditions: vehicle, 2 uM or 50 uM AmB, extended timeframes
Experimental: Small diameter CuFi-1 cultured epithelia were used for this experiment (0.33 cm^2) Cultured epithelia were treated with FC-72 vehicle, 2 and 50 μM AmB administered in perfluorocarbon (FC-72, Sigma) for 48 hours, 7 days, or 28 days. 200 μL of fresh USG media was placed on the apical side of the epithelia. Transepithelial electrical resistance (Rt) was then measured using a Millicell® ERS-2 Voltohmmeter across the apical and basolateral sides of the epithelia in a snaking pattern for two technical replicates per biological replicate.

[1] = system: CuFi-1 (ΔF508/ΔF508) epithelia; assay: Ussing chamber short-circuit current response to CFTR activation; format: cell-based, human; conditions: AmB 2 μM, 48 h
Experimental: To assess the presence of membrane-expressed CFTR, differentiated cultures of NuLi and CuFi-1 epithelia grown on Corning Costar 0.4 μm 24-well plate Transwell Clear Polyester Membrane inserts were used. NuLi and CuFi-1 epithelia were treated with 20 μL of perfluorocarbon (FC-72, Sigma) vehicle or 2 μM amphotericin B (AmB) sonicated into a suspension in FC-72. After 48 hours of incubation, the epithelia were mounted in a dual-channel Ussing chamber (Warner U2500) using the culture cup insert for Transwell adapter, 6.5 mm (Warner U9924T-06) and bathed on both the apical and basolateral sides with a HCO3^− solution (120 mM NaCl, 25 mM NaHCO3, 5 mM KCl, 2 mM CaC2, 1.2 mM MgC2, 13.75 mM NaH2PO4, pH 7.0) at 37° C. and gassed with compressed air. Dextrose was added to this solution immediately prior to experiments to a final concentration of 5.6 mM. Epithelial sodium channel (ENaC) and calcium-activated chloride channel (CaCC) were inhibited by apical addition of 1 μM amiloride and 1 μM DIDS (4,4′-disothiocyanostilbene-2,2′-disulfonic acid), respectively, to achieve a baseline for permeabilization. 10 μM forskolin/100 μM IBMX (3-isobutyl-1-methylxanthine) added apically was used to activate CFTR, and 1 μM CFTRinh-172 was used to inhibit CFTR. Each successive addition of reagent was allowed approximately 10 minutes to equilibrate before the addition of the next reagent (15).

[2] = system: protein ion channel-deficient yeast; conditions: cited from earlier work
[3] = aerosolized / nebulized; cited from earlier work
[4] = system: CuFi-1 (ΔF508/ΔF508) epithelia; assay: ASL cation concentrations by ICP-MS; format: cell-based, human; conditions: AmB 2 μM, 48 h, vs FC-72 vehicle
Experimental: Small diameter CuFi-1 cultured epithelia were used for this experiment (0.33 cm^2). 24 hours prior to the start of experiment, the apical side of all cultured epithelia was rinsed three times with 200 μL warm PBS to remove excess mucus. Fresh USG media was added to the basolateral membrane. CuFi-1 epithelia were treated with either perfluorocarbon (FC-72) vehicle or 2 μM AmB suspended in FC-72, and incubated at 37° C. for 48 hours. 0.1 μL capacity microcapillary tubes (Drummond Scientific NC1453214) were placed into 200 μL pipette tips (Denville Scientific P1122). 48 hours after AmB addition, the microcapillary tubes were gently touched around the edge of the apical membrane of each epithelial culture insert until completely filled with ASL via capillary action. […] The sample was then quantitatively transferred to a 15 mL capacity conical vial by washing 3 times with 50 μL molecular biology grade water.
Quantification of sodium, magnesium, potassium, and calcium was accomplished using inductively coupled plasma mass spectrometry (ICP-MS) of acidified samples. […] Quantitative standards were made using a mixed Na, Mg, K, and Ca standard at 100 μg/mL of each element (Inorganic Ventures, Christiansburg, VA, USA) which were combined to create a 100 ng/mL mixed element standard in 1.0% nitric acid (v/v). […]

[5] = system: CuFi-1 (ΔF508/ΔF508) airway epithelia; assay: Ussing chamber permeabilization of differentiated CF airway epithelia; format: cell-based, human; conditions: differentiated CuFi-1 epithelia
Experimental: A series of natural products and synthetic compounds reported previously to permeabilize liposomes, cells, and/or nasal epithelia of mice to anions (11-14) were tested using an Ussing chamber and differentiated cultures of airway epithelia derived from an immortalized airway epithelial cell line from a CF patient having the most common ΔF508/ΔF508 genotype (CuFi-1) (15). […] The capacity for AmB and C35deOAmB to transport bicarbonate across cholesterol-containing POPC liposomes was tested using an adapted ^13C NMR-based assay (18).

[6] = system: primary cultured human CF epithelia; assay: ASL viscosity (FITC-dextran FRAP); format: cell-based; conditions: AmB 2 μM, 48 h
Experimental: ASL viscosity in airway epithelial cultures was determined (7, 25). Small diameter primary cultured epithelia were used for this experiment (0.33 cm^2). The apical surface was not washed for at least 2 weeks before study. Cultured epithelia were treated with 2 µM AmB administered in perfluorocarbon (FC-72, Sigma) for 48 hours. FITC-dextran (70 kD, Sigma) was then administered to the apical surface of epithelia as a dry powder 2 hrs before measurement of viscosity. FRAP was assayed in a humidified chamber at 37° C. using a Zeiss LSM 510 μMETA microscope. Images were acquired until maximal recovery was reached. At least 6 recovery curves from different locations in each culture were acquired and averaged to obtain data for one epithelial culture. The time constant […] was calculated by regression analysis from fluorescence recovery curves. Viscosity is expressed relative to the time constant of saline (τASL/τsaline).

C[C@@H]1[C@H](O)[C@@H](C)/C=C/C=C/C=C/C=C/C=C/C=C/C=C/[C@H](O[C@@H]2O[C@H](C)[C@@H](O)[C@H](N)[C@@H]2O)C[C@@H]2O[C@](O)(C[C@@H](O)C[C@@H](O)[C@H](O)CC[C@@H](O)C[C@@H](O)CC(=O)O[C@H]1C)C[C@H](O)[C@H]2C(=O)O [AmB, amphotericin B]
membrane integrity / transepithelial electrical resistance (Rt) (CuFi-1 epithelia): did not disrupt membrane integrity; also recorded: no difference in transepithelial electrical resistance; also recorded: did not differ between treatment with vehicle or increasing doses of AmB
short circuit current response to forskolin/IBMX of AmB-treated epithelia [1]: did not show an increase in short circuit current in response to forskolin/IBMX; also recorded: did not respond to chemical activation of CFTR
range of doses for which yeast growth rescue is observed ([2]; AmB pre-complexed with ergosterol): extended by more than an order of magnitude
yeast growth rescue [2]: can restore growth in protein ion channel-deficient yeast; also recorded: restores potassium transport and thus growth in yeast missing the potassium-selective Trk transporters
safety of delivery to the lungs [3]: safely delivered to the lungs in aerosolized form
ASL cation concentrations [4]: unchanged as compared to vehicle-treated controls; also recorded: do not alter major cation concentrations in the ASL
change in short circuit current / permeabilization of epithelia [5]: exceptionally effective in causing a change in short circuit current
ASL viscosity (τASL/τsaline) [6]: decreased ASL viscosity across a wide range of patient genotypes
average magnitude of viscosity reduction [6]: ~1.5 units
